# From PubChem BioAssay (NCI)
# Several values for one entry are separate records, joined by “and”; a condition that tells them apart may be missing. Equal entries are not always repeated.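 Where inhibition never reached the appropriate level, the endpoint shown equals the highest concentration tested. Otherwise, values were interpolated linearly from a five-concentration, 48-hour dose response in 96-well plates. At the GI50, growth is halved. TGI marks complete inhibition of growth.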
# Tests used:
# Assay in all cases: DTP human tumour cell line panel, 48 h
# 786-0 renal = system: 786-0 renal
# A498 renal = system: A498 renal
# A549 NSCLC = system: A549 NSCLC
# ACHN renal = system: ACHN renal
# BT-549 breast = system: BT-549 breast
# CAKI-1 renal = system: CAKI-1 renal
# CCRF-CEM leukemia = system: CCRF-CEM leukemia
# COLO 205 colon = system: COLO 205 colon
# DU-145 prostate = system: DU-145 prostate
# EKVX NSCLC = system: EKVX NSCLC
# HCC-2998 colon = system: HCC-2998 colon
# HCT-116 colon = system: HCT-116 colon
# HCT-15 colon = system: HCT-15 colon
# HL-60(TB) leukemia = system: HL-60(TB) leukemia
# HOP-62 NSCLC = system: HOP-62 NSCLC
# HOP-92 NSCLC = system: HOP-92 NSCLC
# HS 578T breast = system: HS 578T breast
# HT29 colon = system: HT29 colon
# IGROV1 ovarian = system: IGROV1 ovarian
# K-562 leukemia = system: K-562 leukemia
# KM12 colon = system: KM12 colon
# LOX IMVI melanoma = system: LOX IMVI melanoma
# M14 melanoma = system: M14 melanoma
# MALME-3M melanoma = system: MALME-3M melanoma
# MCF7 breast = system: MCF7 breast
# MDA-MB-231 breast = system: MDA-MB-231 breast
# MDA-MB-435 = system: MDA-MB-435
# MDA-N = system: MDA-N
# MOLT-4 leukemia = system: MOLT-4 leukemia
# NCI-H226 lung = system: NCI-H226 lung
# NCI-H23 lung = system: NCI-H23 lung
# NCI-H460 lung = system: NCI-H460 lung
# NCI-H522 lung = system: NCI-H522 lung
# NCI/ADR-RES ovarian = system: NCI/ADR-RES ovarian
# OVCAR-3 ovarian = system: OVCAR-3 ovarian
# OVCAR-4 ovarian = system: OVCAR-4 ovarian
# OVCAR-5 ovarian = system: OVCAR-5 ovarian
# OVCAR-8 ovarian = system: OVCAR-8 ovarian
# PC-3 prostate = system: PC-3 prostate
# RPMI-8226 leukemia = system: RPMI-8226 leukemia
# RXF 393 renal = system: RXF 393 renal
# SF-268 CNS = system: SF-268 CNS
# SF-295 CNS = system: SF-295 CNS
# SF-539 CNS = system: SF-539 CNS
# SK-MEL-2 melanoma = system: SK-MEL-2 melanoma
# SK-MEL-28 melanoma = system: SK-MEL-28 melanoma
# SK-MEL-5 melanoma = system: SK-MEL-5 melanoma
# SK-OV-3 ovarian = system: SK-OV-3 ovarian
# SN12C renal = system: SN12C renal
# SNB-19 CNS = system: SNB-19 CNS
# SNB-75 CNS = system: SNB-75 CNS
# SR leukemia = system: SR leukemia
# SW-620 colon = system: SW-620 colon
# T-47D breast = system: T-47D breast
# TK-10 renal = system: TK-10 renal
# U251 CNS = system: U251 CNS
# UACC-257 melanoma = system: UACC-257 melanoma
# UACC-62 melanoma = system: UACC-62 melanoma
# UO-31 renal = system: UO-31 renal
structure (smiles),measurement,setting,value
c1ccc(-c2cccc(-c3ccccn3)n2)nc1,GI50,786-0 renal,0.113 µM
same,TGI,786-0 renal,2.87 µM and 2.03 µM
same,GI50,A498 renal,1.38 µM
same,TGI,A498 renal,2.31 µM and 3.27 µM
same,GI50,A549 NSCLC,0.225 µM
same,TGI,A549 NSCLC,4.91 µM and 13 µM
same,GI50,ACHN renal,0.0567 µM
same,TGI,ACHN renal,1.75 µM and 1.89 µM
same,GI50,BT-549 breast,0.225 µM
same,TGI,BT-549 breast,13.6 µM
same,TGI,CAKI-1 renal,1.61 µM
same,GI50,CCRF-CEM leukemia,0.058 µM
same,TGI,CCRF-CEM leukemia,> 100 µM
same,GI50,COLO 205 colon,0.0376 µM
same,TGI,COLO 205 colon,1.67 µM and 5.84 µM
same,GI50,DU-145 prostate,0.0863 µM
same,TGI,DU-145 prostate,15.6 µM
same,GI50,EKVX NSCLC,0.111 µM
same,TGI,EKVX NSCLC,4.89 µM and 10.9 µM
same,GI50,HCC-2998 colon,0.0944 µM
same,TGI,HCT-116 colon,1.56 µM
same,GI50,HCT-15 colon,0.0546 µM
same,TGI,HCT-15 colon,1.4 µM and 2.98 µM
same,GI50,HL-60(TB) leukemia,0.112 µM
same,GI50,HOP-62 NSCLC,0.13 µM
same,TGI,HOP-62 NSCLC,1.72 µM and 12.8 µM
same,GI50,HOP-92 NSCLC,3.57 µM
same,TGI,HOP-92 NSCLC,19.8 µM
same,GI50,HS 578T breast,2.55 µM
same,TGI,HS 578T breast,> 10 µM and 47.6 µM
same,GI50,HT29 colon,0.0848 µM
same,TGI,HT29 colon,3.05 µM and 15.7 µM
same,GI50,IGROV1 ovarian,0.0765 µM
same,TGI,IGROV1 ovarian,2.97 µM and 11.7 µM
same,TGI,K-562 leukemia,> 100 µM
same,GI50,KM12 colon,0.0751 µM
same,TGI,KM12 colon,2.27 µM and 13.7 µM
same,GI50,LOX IMVI melanoma,0.0573 µM
same,TGI,LOX IMVI melanoma,12.5 µM
same,GI50,M14 melanoma,0.0924 µM
same,TGI,M14 melanoma,0.434 µM and 1.07 µM
same,TGI,MALME-3M melanoma,1.11 µM and 3.48 µM
same,TGI,MCF7 breast,> 10 µM
same,GI50,MDA-MB-231 breast,0.086 µM
same,TGI,MDA-MB-231 breast,1.89 µM and 15.2 µM
same,TGI,MDA-MB-435,2.28 µM and 18.4 µM
same,TGI,MDA-N,2.19 µM
same,GI50,MOLT-4 leukemia,0.0658 µM
same,TGI,MOLT-4 leukemia,> 100 µM
same,GI50,NCI-H226 lung,0.275 µM
same,TGI,NCI-H226 lung,4.85 µM
same,TGI,NCI-H23 lung,> 10 µM and 64.2 µM
same,GI50,NCI-H460 lung,0.0604 µM
same,TGI,NCI-H460 lung,1.35 µM and 2.51 µM
same,TGI,NCI-H522 lung,> 10 µM and 19.3 µM
same,GI50,NCI/ADR-RES ovarian,0.161 µM
same,TGI,NCI/ADR-RES ovarian,1.22 µM and 8.76 µM
same,GI50,OVCAR-3 ovarian,0.11 µM
same,GI50,OVCAR-4 ovarian,0.0839 µM
same,TGI,OVCAR-4 ovarian,3.48 µM and 13.7 µM
same,GI50,OVCAR-5 ovarian,0.403 µM
same,TGI,OVCAR-5 ovarian,3.72 µM and 22 µM
same,GI50,OVCAR-8 ovarian,0.145 µM
same,GI50,PC-3 prostate,0.17 µM
same,TGI,PC-3 prostate,3.76 µM and 15.4 µM
same,TGI,RPMI-8226 leukemia,> 10 µM and 95.1 µM
same,TGI,RXF 393 renal,1.41 µM and 7.32 µM
same,GI50,SF-268 CNS,0.0814 µM
same,TGI,SF-268 CNS,> 10 µM and 15.8 µM
same,GI50,SF-295 CNS,0.0785 µM
same,TGI,SF-295 CNS,0.791 µM and 3.87 µM
same,GI50,SF-539 CNS,0.243 µM
same,TGI,SF-539 CNS,2.07 µM and 13.3 µM
same,GI50,SK-MEL-2 melanoma,0.425 µM
same,TGI,SK-MEL-2 melanoma,3.64 µM and 18.6 µM
same,GI50,SK-MEL-28 melanoma,0.182 µM
same,TGI,SK-MEL-28 melanoma,3.25 µM and 15 µM
same,GI50,SK-MEL-5 melanoma,0.122 µM
same,TGI,SK-MEL-5 melanoma,0.68 µM and 1.18 µM
same,GI50,SK-OV-3 ovarian,0.0895 µM
same,TGI,SK-OV-3 ovarian,2.05 µM and 2.42 µM
same,GI50,SN12C renal,0.22 µM
same,TGI,SN12C renal,9.77 µM and 16.2 µM
same,GI50,SNB-19 CNS,0.293 µM
same,TGI,SNB-19 CNS,> 10 µM and 16.7 µM
same,GI50,SNB-75 CNS,0.234 µM
same,TGI,SNB-75 CNS,> 10 µM and 17.7 µM
same,GI50,SR leukemia,0.06 µM
same,GI50,SW-620 colon,0.198 µM
same,TGI,SW-620 colon,4.54 µM and 14 µM
same,GI50,T-47D breast,0.343 µM
same,TGI,T-47D breast,> 10 µM and 12.7 µM
same,GI50,TK-10 renal,0.0595 µM
same,TGI,TK-10 renal,3 µM and 7.89 µM
same,GI50,U251 CNS,0.0901 µM
same,TGI,U251 CNS,2.86 µM and 13.4 µM
same,GI50,UACC-257 melanoma,0.337 µM
same,TGI,UACC-257 melanoma,1.65 µM and 5.46 µM
same,GI50,UACC-62 melanoma,0.243 µM
same,TGI,UACC-62 melanoma,2.93 µM and 4.24 µM
same,GI50,UO-31 renal,0.0373 µM
same,TGI,UO-31 renal,0.425 µM and 1.29 µM
NC(Cc1cnc(I)[nH]1)C(=O)O (stereo unspecified),TGI,786-0 renal,> 100 µM
same,TGI,A498 renal,> 100 µM
same,TGI,A549 NSCLC,> 100 µM
same,TGI,ACHN renal,> 100 µM
same,TGI,BT-549 breast,> 100 µM
same,TGI,CAKI-1 renal,> 100 µM
same,TGI,CCRF-CEM leukemia,> 100 µM
same,TGI,COLO 205 colon,> 100 µM
same,TGI,DU-145 prostate,> 100 µM
same,TGI,EKVX NSCLC,> 100 µM
same,TGI,HCC-2998 colon,> 100 µM
same,TGI,HCT-116 colon,> 100 µM
same,TGI,HCT-15 colon,> 100 µM
same,TGI,HL-60(TB) leukemia,6.41 µM
same,TGI,HOP-62 NSCLC,> 100 µM
same,TGI,HOP-92 NSCLC,82.9 µM
same,TGI,HS 578T breast,63.8 µM
same,TGI,HT29 colon,> 100 µM
same,TGI,IGROV1 ovarian,> 100 µM
same,TGI,K-562 leukemia,> 100 µM
same,TGI,KM12 colon,> 100 µM
same,TGI,LOX IMVI melanoma,> 100 µM
same,TGI,M14 melanoma,> 100 µM
same,TGI,MALME-3M melanoma,75.2 µM
same,TGI,MCF7 breast,> 100 µM
same,TGI,MDA-MB-231 breast,> 100 µM
same,TGI,MDA-MB-435,> 100 µM
same,TGI,MDA-N,> 100 µM
same,TGI,MOLT-4 leukemia,> 100 µM
same,TGI,NCI-H226 lung,> 100 µM
same,TGI,NCI-H23 lung,> 100 µM
same,TGI,NCI-H460 lung,> 100 µM
same,TGI,NCI-H522 lung,72.9 µM
same,TGI,NCI/ADR-RES ovarian,> 100 µM
same,TGI,OVCAR-3 ovarian,> 100 µM
same,TGI,OVCAR-4 ovarian,> 100 µM
same,TGI,OVCAR-5 ovarian,> 100 µM
same,TGI,OVCAR-8 ovarian,> 100 µM
same,TGI,PC-3 prostate,> 100 µM
same,TGI,RPMI-8226 leukemia,> 100 µM
same,TGI,RXF 393 renal,> 100 µM
same,TGI,SF-268 CNS,> 100 µM
same,TGI,SF-295 CNS,> 100 µM
same,TGI,SF-539 CNS,> 100 µM
same,TGI,SK-MEL-2 melanoma,> 100 µM
same,TGI,SK-MEL-28 melanoma,> 100 µM
same,TGI,SK-MEL-5 melanoma,> 100 µM
same,TGI,SK-OV-3 ovarian,> 100 µM
same,TGI,SN12C renal,> 100 µM
same,TGI,SNB-19 CNS,> 100 µM
same,TGI,SNB-75 CNS,> 100 µM
same,TGI,SR leukemia,> 100 µM
same,TGI,SW-620 colon,> 100 µM
same,TGI,T-47D breast,> 100 µM
same,TGI,TK-10 renal,> 100 µM
same,TGI,U251 CNS,> 100 µM
same,TGI,UACC-257 melanoma,> 100 µM
same,TGI,UACC-62 melanoma,> 100 µM
same,TGI,UO-31 renal,> 100 µM
